Results as given in the NIST ThermoML archive (doi:10.1021/acs.jced.7b01125).

Assay: xn = mol fraction of the nth substance listed
Details: Gas, Buoyancy - hydrostatic balance with magnetic suspension - one sinker

[HH] [hydrogen] + C
Details | mass density [kg/m3]
275.01 K, 5005 kPa, x2 = 0.9 | 35.103
275.01 K, 6005 kPa, x2 = 0.9 | 42.849
275.01 K, 6005 kPa, x2 = 0.9499 | 45.691
275.01 K, 7005 kPa, x2 = 0.9 | 50.825
275.01 K, 7005 kPa, x2 = 0.9499 | 54.384
275.01 K, 8002 kPa, x2 = 0.9 | 58.973
275.01 K, 8003 kPa, x2 = 0.9499 | 63.333
275.01 K, 9002 kPa, x2 = 0.9 | 67.322
275.01 K, 9003 kPa, x2 = 0.9499 | 72.54
275.01 K, 10005 kPa, x2 = 0.9 | 75.811
275.01 K, 10006 kPa, x2 = 0.9499 | 81.955
275.01 K, 11001 kPa, x2 = 0.4997 | 43.883
275.01 K, 11005 kPa, x2 = 0.9499 | 91.455
275.01 K, 11006 kPa, x2 = 0.9 | 84.369
275.01 K, 12007 kPa, x2 = 0.9 | 92.928
275.01 K, 12009 kPa, x2 = 0.9499 | 101.013
275.01 K, 13009 kPa, x2 = 0.9 | 101.458
275.01 K, 13011 kPa, x2 = 0.9499 | 110.507
275.01 K, 14003 kPa, x2 = 0.4997 | 55.493
275.01 K, 14006 kPa, x2 = 0.9 | 109.837
275.01 K, 14006 kPa, x2 = 0.9499 | 119.787
275.01 K, 15000 kPa, x2 = 0.4997 | 59.259
275.01 K, 15008 kPa, x2 = 0.9 | 118.086
275.01 K, 15018 kPa, x2 = 0.9499 | 128.986
275.01 K, 16003 kPa, x2 = 0.9 | 126.067
275.01 K, 16005 kPa, x2 = 0.4997 | 63.009
275.01 K, 16016 kPa, x2 = 0.9499 | 137.753
275.01 K, 17006 kPa, x2 = 0.4997 | 66.693
275.01 K, 17009 kPa, x2 = 0.9 | 133.878
275.01 K, 17010 kPa, x2 = 0.9499 | 146.15
275.01 K, 18001 kPa, x2 = 0.4997 | 70.294
275.01 K, 18006 kPa, x2 = 0.9 | 141.344
275.01 K, 19020 kPa, x2 = 0.9499 | 161.966
275.01 K, 19297 kPa, x2 = 0.4997 | 74.901
275.01 K, 19909 kPa, x2 = 0.9499 | 168.44
275.02 K, 18019 kPa, x2 = 0.9499 | 154.292
275.02 K, 19012 kPa, x2 = 0.9 | 148.567
275.02 K, 19897 kPa, x2 = 0.9 | 154.661
299.95 K, 3999 kPa, x2 = 0.9 | 24.698
299.95 K, 16003 kPa, x2 = 0.9 | 107.531
299.96 K, 999 kPa, x2 = 0.9 | 5.941
299.96 K, 999 kPa, x2 = 0.9499 | 6.241
299.96 K, 1999 kPa, x2 = 0.9 | 12.047
299.96 K, 2000 kPa, x2 = 0.9499 | 12.675
299.96 K, 2983 kPa, x2 = 0.9499 | 19.18
299.96 K, 2990 kPa, x2 = 0.9 | 18.241
299.96 K, 3999 kPa, x2 = 0.9499 | 26.096
299.96 K, 4999 kPa, x2 = 0.9 | 31.243
299.96 K, 4999 kPa, x2 = 0.9499 | 33.078
299.96 K, 5999 kPa, x2 = 0.9 | 37.914
299.96 K, 6000 kPa, x2 = 0.9499 | 40.236
299.96 K, 6999 kPa, x2 = 0.9 | 44.708
299.96 K, 7000 kPa, x2 = 0.9499 | 47.554
299.96 K, 8001 kPa, x2 = 0.9 | 51.609
299.96 K, 8001 kPa, x2 = 0.9499 | 55.012
299.96 K, 9002 kPa, x2 = 0.9 | 58.59
299.96 K, 9003 kPa, x2 = 0.9499 | 62.59
299.96 K, 10003 kPa, x2 = 0.9 | 65.636
299.96 K, 10004 kPa, x2 = 0.9499 | 70.258
299.96 K, 11001 kPa, x2 = 0.9499 | 77.955
299.96 K, 11003 kPa, x2 = 0.9 | 72.706
299.96 K, 12002 kPa, x2 = 0.9 | 79.763
299.96 K, 12003 kPa, x2 = 0.9499 | 85.693
299.96 K, 13002 kPa, x2 = 0.9 | 86.81
299.96 K, 13003 kPa, x2 = 0.9499 | 93.405
299.96 K, 14003 kPa, x2 = 0.9 | 93.813
299.96 K, 14006 kPa, x2 = 0.9499 | 101.077
299.96 K, 15004 kPa, x2 = 0.9499 | 108.622
299.96 K, 15005 kPa, x2 = 0.9 | 100.739
299.96 K, 16005 kPa, x2 = 0.9499 | 116.045
299.96 K, 17007 kPa, x2 = 0.9 | 114.233
299.96 K, 17007 kPa, x2 = 0.9499 | 123.312
299.96 K, 18003 kPa, x2 = 0.9 | 120.727
299.96 K, 18007 kPa, x2 = 0.9499 | 130.371
299.96 K, 18999 kPa, x2 = 0.9499 | 137.175
299.96 K, 19011 kPa, x2 = 0.9 | 127.134
299.96 K, 19426 kPa, x2 = 0.9499 | 140.03
299.96 K, 19795 kPa, x2 = 0.9 | 131.987
324.96 K, 999 kPa, x2 = 0.9 | 5.467
324.96 K, 1002 kPa, x2 = 0.4997 | 3.349
324.96 K, 1999 kPa, x2 = 0.9 | 11.036
324.96 K, 2003 kPa, x2 = 0.4997 | 6.689
324.96 K, 2987 kPa, x2 = 0.4997 | 9.973
324.96 K, 2999 kPa, x2 = 0.9 | 16.7
324.96 K, 4000 kPa, x2 = 0.9 | 22.453
324.96 K, 4001 kPa, x2 = 0.4997 | 13.346
324.96 K, 4999 kPa, x2 = 0.9 | 28.286
324.96 K, 5001 kPa, x2 = 0.4997 | 16.663
324.96 K, 6000 kPa, x2 = 0.9 | 34.198
324.96 K, 6001 kPa, x2 = 0.4997 | 19.966
324.96 K, 6999 kPa, x2 = 0.9 | 40.162
324.96 K, 7000 kPa, x2 = 0.4997 | 23.25
324.96 K, 8002 kPa, x2 = 0.4997 | 26.528
324.96 K, 8004 kPa, x2 = 0.9 | 46.209
324.96 K, 8999 kPa, x2 = 0.4997 | 29.768
324.96 K, 9000 kPa, x2 = 0.9 | 52.245
324.96 K, 9001 kPa, x2 = 0.9499 | 55.531
324.96 K, 9926 kPa, x2 = 0.4997 | 32.763
